# Assay results published in patent US7528175B2, “Method of treating airway diseases with beta-adrenergic inverse agonists” (Inverseon, Inc., priority 2005, dated 2009).
# Entries after “also recorded” stand apart in the source; their conditions may differ. Like-named read-outs stand apart in the source and are kept apart here.
# Tests used:
# patients with CHF = details: cited from earlier work
# β-adrenergic receptor = details: U.S. Pat. No. 6,284,800; cited from earlier work
# [1] = tested on: antigen-induced bronchoconstriction; details: acute administration; cited from earlier work
# [2] = tested on: tracheas from asthmatic mice; details: chronic treatment of asthmatic mice, excised tracheas; cited from earlier work
# asthmatic mice [3] = assay: BALF cell number and type (Example 11); assay type: in vivo; details: vs nontreated asthmatic mice
# From the text: The same mice as described in Example 1 underwent bronchoalveolar lavage (BAL) to determine the total number and type of immune system cells in the lung. BAL Fluid (BALF) was irrigated and collected from the lungs of mice as previously described (Evans K L, Bond R A, Corry […]. Frequency dependence of respiratory system mechanics during induced constriction in a murine model of asthma. J Appl Physiol. 2003 January;94(1):245-52). […] The number of neutrophils was increased in nontreated asthmatic mice compared to mice that served as controls for chronic beta-blocker treatments. In comparison to their notable effects on airway responsiveness, the β-AR ligands tested had very little effect on BALF cellularity. […] FIG. 12 has 3 panels of cell number and type of cells from the bronchoalveolar lavage fluid of asthmatic mice treated acutely or chronically with beta adrenergic ligands. Cells were identified as eosinophils (black bars), macrophages (hatched bars), neutrophils (grey bars), and lymphocytes (white bars) by standard morphologic criteria. At least 200 cells were counted per cytospin preparation, and the absolute number of each cell type was calculated based on the volume of fluid recovered from the lavage. […] Data are expressed as mean ±SEM and are representative of 6-25 animals per group. #P<0.05 compared to NTX, *P<0.05 compared to control (ANOVA).
# β2-adrenergic receptor [4] = assay type: binding, mice; details: 2 days of administration
# Description: (§1) β2-adrenergic receptor numbers were measured in asthmatic mice as follows. […] Mice were sacrificed and lung membranes were isolated as follows. Frozen lung tissue was homogenized in an ice-cold buffer containing 0.32 M sucrose and 25 mM Tris (pH 7.4) using a polytron (Pro 200, Pro Scientific, Inc.). The homogenate was centrifuged at 1000×g for 10 min at 4° C. The resulting supernatant was centrifuged at 40,000×g for 20 min at 4° C. The pellet was suspended in an ice-cold 25 mM Tris-HCl buffer (pH 7.4) and centrifuged at 40,000×g for 20 min at 4° C. The final pellet was suspended in 200 μL of 25 mM Tris-HCl (pH 7.4); membrane protein concentration was determined by BCA protein assay kit. […] The incubation was done at 37° C. for 2 h and terminated by rapid vacuum filtration through glass fiber filters. The filters were washed three times with 250 μL of cold wash buffer (25 mM Tris-HCl, pH 7.4) and the radioactivity determined in a counter. […] Receptor densities are expressed as femtomoles of sites per milligram of protein. Bmax is determined by nonlinear regression of the saturation binding curves.
# β2-adrenergic receptor [5] = biological target: β2-adrenergic receptor (Mus musculus, UniProt P18762); assay type: binding, mice; details: for Bmax: 15 Minutes drug treatment; for Bmax / βmax: lung membranes of asthmatic mice, mean±SEM; for βmax: 28 Days drug treatment; for level of the β2-adrenergic receptor: chronic treatment, asthmatic mice
# Description: as §1
# asthmatic mice [6] = assay: Airway resistance (Raw) response to methacholine in murine model of asthma (forced oscillation); assay type: in vivo, Balb/cJ mice; details: for airway hyperresponsiveness (Raw): chronic treatment 7 days, 20 mg/kg (metoprolol 3× daily s.c.; timolol in chow)
# Description: Balb/cJ mice aged 6 weeks (Jackson Animal Laboratory, Bar Harbor, Me.) were housed under specific pathogen-free conditions and fed a chicken ovalbumin-free diet. The Animal Research Ethics Boards of both the University of Houston and the Baylor College of Medicine approved all experiments reported here. […] Mice were sensitized with subcutaneous injection of 25 μg of ovalbumin adsorbed to aluminum hydroxide on protocol days 2, 9, and 16. Subsequently, mice were given 50 μL of saline solution containing 25 μg of ovalbumin intranasally, on a daily basis, from protocol days 23 through 27. A group of ovalbumin-sensitized saline-challenged mice serves as controls for systemic sensitization and respiratory challenges with ovalbumin. Prior to intranasal administrations, mice were sedated with halothane vapor.
# To examine the effects of duration of β-adrenergic ligand therapy on the phenotype of the murine model of asthma, the experimental drugs were administered either acutely or chronically to different groups of asthmatic mice.
# Asthmatic mice on acute therapy were given a single intravenous bolus infusion of either β-adrenergic drug or normal saline on protocol day 28, 15 minutes before airway responsiveness to methacholine was determined. […] […] […] These concentrations were chosen based on those producing therapeutic effects in mice in previously published studies. The non-asthmatic mice were fed normal chow.
# On protocol day 28, mice were anesthetized, tracheotomized, and connected to a computer-controlled small animal ventilator (Flexivent, Scientific Respiratory Equipment, Inc., Montreal, Canada). Airway resistance (Raw) was measured using the forced oscillation technique. The cellular composition of bronchoalveolar lavage fluid (BALF) was also determined.
# To induce airway constriction, a solution containing 150 μg/mL of acetyl-α-methylcholine chloride (methacholine) (Sigma Chemical, St. Louis, Mo.) was infused intravenously at constant rates using a syringe infusion pump (Raze Scientific Instruments, Stanford, Conn.). […] Each methacholine dose was administered for 3 to 5 minutes, during which data were sampled at 1-minute intervals and then averaged.
# The complex input impedance of the respiratory system was computed and the value of the real part of respiratory system impedance at 19.75 Hz was taken to reflect the magnitude of airway resistance (Raw). To examine the degree of airway responsiveness of each animal, the values for Raw as a function of methacholine doses were plotted. The largest value for Raw achieved in response to methacholine stimulation was referred to as Rawpeak. For mice that achieved a plateau in the methacholine dose-Raw response curve, the ED50 was calculated by linear interpolation using the GraphPad Prism4 (GraphPad Software, Inc.). […] The Bonferroni test was used to examine the statistical differences between experimental groups. The effects of acute drug treatments on baseline respiratory system mechanics were assessed using a two-tailed paired t-test. A value of P<0.05 was considered significant.
# For these experiments, salbutamol was used for chronic administration at 0.5 mg/kg/day with a minipump and for acute administration at 0.15 mg/kg by i.v. bolus 15 minutes prior to challenge. Alprenolol was used at a high dose of 7200 ppm in chow or at a low dose of 720 ppm in chow. Carvedilol was used at a high dose of 2400 ppm in chow or at a low dose of 720 ppm in chow.
# [7] = cited from earlier work
# asthmatic mice [8] = assay: Total number of immune cells in BALF (Example 12); assay type: in vivo; details: chronic treatment; compared to NS/NC mice
# Description: Bronchial alveolar lavage fluid was collected from treated animals and total immune cell number was determined and the total number of eosinophils was also determined. Additionally, the interleukin 10 (IL-10) levels were determined in the mice.
# [9] = chronic use; cited from earlier work
# [10] = asthmatic mice, acute: single intravenous bolus 15 minutes before methacholine
# [11] = asthmatic mice, chronic administration for 28 days
# Chain of β2-adrenergic receptor (Mus musculus, UniProt P18762) (P18762 whole entry): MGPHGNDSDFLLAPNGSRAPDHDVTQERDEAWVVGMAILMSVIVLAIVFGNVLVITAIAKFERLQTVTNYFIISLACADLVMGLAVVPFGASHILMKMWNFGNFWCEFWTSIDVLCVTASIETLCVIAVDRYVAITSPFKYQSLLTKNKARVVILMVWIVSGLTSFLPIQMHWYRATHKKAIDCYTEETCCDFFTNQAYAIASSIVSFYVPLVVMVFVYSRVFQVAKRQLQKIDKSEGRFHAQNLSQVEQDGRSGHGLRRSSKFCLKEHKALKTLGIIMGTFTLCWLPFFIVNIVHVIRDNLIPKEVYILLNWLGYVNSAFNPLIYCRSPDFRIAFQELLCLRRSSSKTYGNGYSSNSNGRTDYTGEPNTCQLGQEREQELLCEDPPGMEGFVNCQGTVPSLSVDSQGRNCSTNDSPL
smiles,measurement,setting,value
"CC(C)(Cc1c[nH]c2ccccc12)NCC(O)COc1ccccc1C#N (stereo not shown) [Bucindolol, bucindolol]",clinical outcome in congestive heart failure,patients with CHF,failed to demonstrate any benefit over placebo
CC(C)NC[C@@H](O)COc1cccc2ccccc12 [D-propranolol],activity with respect to β-adrenergic receptors,β-adrenergic receptor,inactive
same,antigen-induced bronchoconstriction and airway hyperresponsiveness,[1],beneficial in inhibiting antigen-induced bronchoconstriction and reducing airway hyperresponsiveness
"Cc1ccc(OCC(O)C(C)NC(C)C)c2c1CCC2 (stereo not shown) [ICI-118,551]",effectiveness on tracheal contraction in response to methacholine (rank),[2],"then ICI-118,551"
"CC(C)NC[C@H](O)COc1cccc2ccccc12 [L-form of propranolol, propranolol]",specific lung resistance,[1],increased specific lung resistance
C=CCc1ccccc1OCC(O)CNC(C)C (stereo not shown) [alprenolol],effectiveness on tracheal contraction in response to methacholine (rank),[2],The most effective compound
same,BALF cellularity,asthmatic mice [3]; acute treatment (15 minutes),significant increase in the number of macrophages
same,BALF cellularity,asthmatic mice [3]; chronic treatment (28 days),no changes in BALF cellularity were observed
same,Increased β2AR density,β2-adrenergic receptor [4],no
same,Bmax,β2-adrenergic receptor [5],299.5 ± 12.19 femtomoles of sites per milligram of protein
same,βmax,β2-adrenergic receptor [5],179.2 ± 53.05 femtomoles of sites per milligram of protein
same,Increased β2AR density,β2-adrenergic receptor [5]; 15 minutes of administration,yes
same,Increased β2AR density,β2-adrenergic receptor [5]; 28 days of administration,no
same,level of the β2-adrenergic receptor,β2-adrenergic receptor [5],slight decrease
same,Decreased Raw,asthmatic mice [6]; 15 minutes of administration,yes
same,Decreased Raw,asthmatic mice [6]; 2 days of administration,no
same,Decreased Raw,asthmatic mice [6]; 28 days of administration,no
same,airway responsiveness to methacholine provocation (Raw),asthmatic mice [6]; [10],airway responsiveness was diminished
same,airway responsiveness to methacholine provocation (Raw),asthmatic mice [6]; [11],does not reduce airway hyperresponsiveness; also recorded: without any activity; also recorded: provides no benefit upon chronic administration
same,methacholine doses at which Raw was significantly decreased vs non-treated (P<0.05),"asthmatic mice [6]; asthmatic mice, single intravenous bolus",≥ 408 µg/kg/min
CCCC1O[C@@H]2C[C@H]3[C@@H]4CCC5=CC(=O)C=C[C@]5(C)[C@H]4[C@@H](O)C[C@]3(C)[C@]2(C(=O)CO)O1 (stereo partly shown) [budesonide],plasma clearance relative to average clearance of prednisolone,[7]; in vivo,about 10 fold
same,systemic availability of the swallowed fraction,[7]; in vivo,10.7±4.3%
same,"plasma clearance of the 2 enantiomers, children with asthma vs healthy adults","[7]; per kilogram of bodyweight, 6 children, 11 adults",about 50%
C[C@@H]1C[C@H]2[C@@H]3C[C@H](F)C4=CC(=O)C=C[C@]4(C)[C@@]3(F)[C@@H](O)C[C@]2(C)[C@@]1(O)C(=O)SCF [fluticasone],first-pass hepatic metabolism of systemically absorbed drug,[7]; in vivo,almost complete
COCCc1ccc(OCC(O)CNC(C)C)cc1 (stereo not shown) [metoprolol],airway hyperresponsiveness (Raw),asthmatic mice [6],effective in reducing airway hyperresponsiveness
same,clinical outcome in congestive heart failure,patients with CHF,significant mortality reduction
CC(C)(C)NCC(O)c1ccc(O)c(CO)c1 (stereo not shown) [salbutamol],BALF cellularity,asthmatic mice [3]; acute treatment (15 minutes),did not alter the cellular composition of BALF
same,BALF cellularity,asthmatic mice [3]; chronic treatment (28 days),significant increase in the number of eosinophils
same,bioavailability of inhaled drug,[7]; 10 patients with cystic fibrosis vs healthy adults,greater than that in healthy adults
same,Increased β2AR density,β2-adrenergic receptor [4],no
same,Bmax,β2-adrenergic receptor [5],256.5 ± 29.24 femtomoles of sites per milligram of protein
same,βmax,β2-adrenergic receptor [5],97.0 ± 23.02 femtomoles of sites per milligram of protein
same,Increased β2AR density,β2-adrenergic receptor [5]; 15 minutes of administration,yes
same,Increased β2AR density,β2-adrenergic receptor [5]; 28 days of administration,no
same,level of the β2-adrenergic receptor,β2-adrenergic receptor [5],slight decrease
same,total number of immune cells in BALF,asthmatic mice [8],statistically significant at P<0.05 total higher numbers of immune cells
same,Decreased Raw,asthmatic mice [6]; 15 minutes of administration,yes
same,Decreased Raw,asthmatic mice [6]; 2 days of administration,no
same,Decreased Raw,asthmatic mice [6]; 28 days of administration,no
same,airway responsiveness to methacholine provocation (Raw),asthmatic mice [6]; [10],reduced the level of airway responsiveness to methacholine provocation and the level of airway resistance
same,airway responsiveness to methacholine provocation (Raw),asthmatic mice [6]; [11],no protection was observed
OCc1cc(C(O)CNCCCCCCOCCCCc2ccccc2)ccc1O (stereo not shown) [salmeterol],time for majority of a dose to be eliminated in the feces,[7]; in vivo,≤ 72 h
same,trial outcome,[9],stopped due to increased death rates
CC(C)(C)NCC(O)c1cc(O)cc(O)c1 (stereo not shown) [terbutaline],increase in bioavailability from oral component,[7]; from an MDI,6.7%
same,absorption through the lung,[7]; healthy smokers vs healthy nonsmokers,absorbed through the lung more rapidly in healthy smokers than in healthy nonsmokers
CC(C)(C)NC[C@H](O)COc1nsnc1N1CCOCC1 [timolol],airway hyperresponsiveness (Raw),asthmatic mice [6],effective in reducing airway hyperresponsiveness
